Structures can show the parent of a compound that is named as a salt.
What was measured:
human EHMT2 913-1193 = target: T1, human EHMT2 913-1193 (Homo sapiens, UniProt Q96KQ7); experiment: EHMT2 enzyme assay on histone peptide substrate (EHMT2 PEP); format: biochemical; conditions: Table II; read-out: EHMT2 PEP (IC50 μM)
T1 construct: recombinant purified human EHMT2 913-1193, Viva; purchased Viva
T1 sequence (Q96KQ7 913-1193): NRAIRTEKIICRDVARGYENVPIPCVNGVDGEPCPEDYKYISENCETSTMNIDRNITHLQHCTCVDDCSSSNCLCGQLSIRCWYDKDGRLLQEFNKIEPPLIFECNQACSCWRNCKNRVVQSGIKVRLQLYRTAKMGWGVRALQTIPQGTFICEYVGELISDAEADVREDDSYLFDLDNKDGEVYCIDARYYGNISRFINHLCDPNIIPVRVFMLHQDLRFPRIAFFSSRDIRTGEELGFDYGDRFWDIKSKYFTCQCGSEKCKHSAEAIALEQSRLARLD
In short: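 Radiometric methyltransferase assay: 0.031 nM EHMT2 913-1193 preincubated 30 min with compound (10-point 3-fold series, top final 50 μM, 2% DMSO) in 20 mM Bicine pH 7.5, 1 mM TCEP. Biotinylated histone peptide methylated with ^3H-SAM for 60 min at room temperature, quenched with unlabeled SAM, captured on streptavidin Flashplates and counted.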

EHMT1 = target: T2, EHMT1 (Homo sapiens, UniProt Q9H9B1); experiment: EHMT1 enzyme assay on peptide substrate (EHMT1 PEP); format: biochemical; conditions: Table II; read-out: EHMT1 PEP (IC50 μM)
T2 sequence (Q9H9B1 1-1298): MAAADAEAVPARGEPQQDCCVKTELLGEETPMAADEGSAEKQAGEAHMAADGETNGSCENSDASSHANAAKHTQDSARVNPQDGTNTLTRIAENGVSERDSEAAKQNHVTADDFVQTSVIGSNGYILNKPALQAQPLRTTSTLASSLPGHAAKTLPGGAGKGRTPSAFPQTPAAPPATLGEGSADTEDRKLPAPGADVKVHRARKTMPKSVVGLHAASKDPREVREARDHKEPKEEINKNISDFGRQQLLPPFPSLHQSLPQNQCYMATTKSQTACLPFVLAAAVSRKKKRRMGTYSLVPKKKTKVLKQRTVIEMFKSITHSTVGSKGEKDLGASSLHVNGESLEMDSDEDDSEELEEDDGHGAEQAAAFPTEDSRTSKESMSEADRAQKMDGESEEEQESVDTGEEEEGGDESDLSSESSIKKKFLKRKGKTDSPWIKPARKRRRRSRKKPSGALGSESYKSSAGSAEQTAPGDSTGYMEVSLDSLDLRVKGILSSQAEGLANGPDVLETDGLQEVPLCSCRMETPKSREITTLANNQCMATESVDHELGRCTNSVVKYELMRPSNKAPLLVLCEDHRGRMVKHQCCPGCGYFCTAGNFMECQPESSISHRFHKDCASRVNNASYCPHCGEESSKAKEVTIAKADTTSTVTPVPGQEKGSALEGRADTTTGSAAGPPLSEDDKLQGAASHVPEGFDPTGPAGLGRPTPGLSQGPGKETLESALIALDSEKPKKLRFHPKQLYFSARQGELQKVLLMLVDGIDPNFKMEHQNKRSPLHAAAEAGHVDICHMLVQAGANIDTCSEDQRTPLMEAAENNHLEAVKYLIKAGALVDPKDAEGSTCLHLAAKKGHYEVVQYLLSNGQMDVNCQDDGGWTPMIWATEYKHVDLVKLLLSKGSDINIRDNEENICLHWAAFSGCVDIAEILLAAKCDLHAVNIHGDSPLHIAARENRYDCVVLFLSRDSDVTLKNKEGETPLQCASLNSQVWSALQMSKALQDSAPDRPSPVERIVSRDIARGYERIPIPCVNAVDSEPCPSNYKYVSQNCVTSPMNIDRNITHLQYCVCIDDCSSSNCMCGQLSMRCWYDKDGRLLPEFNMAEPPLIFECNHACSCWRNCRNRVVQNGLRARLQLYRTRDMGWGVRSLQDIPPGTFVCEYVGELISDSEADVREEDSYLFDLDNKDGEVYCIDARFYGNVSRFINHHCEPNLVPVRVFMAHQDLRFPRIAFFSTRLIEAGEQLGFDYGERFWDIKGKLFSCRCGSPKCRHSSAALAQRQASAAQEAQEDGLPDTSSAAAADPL

Row | IC50 (human EHMT2 913-1193) [µM] | IC50 (EHMT1) [µM] | Structure (SMILES)
1 | < 0.1 | 0.1 to 1 | COc1ccc(Nc2nccc(NC(C)(C)C)n2)cc1OCCCN1CCCC1 [Compound 6, N^4-(tert-butyl)-N^2-(4-methoxy-3-(3-(pyrrolidin-1-yl)propoxy)phenyl)pyrimidine-2,4-diamine]
2 | < 0.1 | < 0.1 | COc1ccc(Nc2ccnc(NCC3CCNCC3)n2)cc1OCCCN1CCCC1 [Compound 7, 4-N-[4-methoxy-3-[3-(pyrrolidin-1-yl)propoxy]phenyl]-2-N-(piperidin-4-ylmethyl)pyrimidine-2,4-diamine hydrochloride]
3 | 0.1 to 1 | 0.1 to 1 | CC(=O)N1CCC(CNc2ccnc(Nc3ccc(Cl)c(OCCCN4CCCC4)c3)n2)CC1 [Compound 8, 1-(4-(((2-((4-chloro-3-(3-(pyrrolidin-1-yl)propoxy)phenyl)amino)pyrimidin-4-yl)amino)methyl)piperidin-1-yl)ethan-1-one]
4 | 1 to 10 | > 10 | CNC(=O)c1cnc(Nc2ccc(OC)c(OCCCN3CCCC3)c2)nc1 [Compound 9, 2-((4-methoxy-3-(3-(pyrrolidin-1-yl)propoxy)phenyl)amino)-N-methylpyrimidine-5-carboxamide]
5 | < 0.1 | 0.1 to 1 | COc1ccc(Nc2cc(NCC3CCNCC3)ccn2)cc1OCCCN1CCCC1 [Compound 10, N^2-(4-methoxy-3-(3-(pyrrolidin-1-yl)propoxy)phenyl)-N^4-(piperidin-4-ylmethyl)pyridine-2,4-diamine]
6 | 1 to 10 | 1 to 10 | COc1cnc(Nc2ccnc(CNC3CCOCC3)c2)cc1OCCCN1CCCC1 [Compound 12, 5-methoxy-4-(3-(pyrrolidin-1-yl)propoxy)-N-(2-(((tetrahydro-2H-pyran-4-yl)amino)methyl)pyridin-4-yl)pyridin-2-amine]
7 | > 10 | > 10 | COc1ccc(Nc2ccnc(N(C)CC3CCN(C(C)=O)CC3)c2)cc1OCCCN1CCCC1 [Compound 13, 1-(4-(((4-((4-methoxy-3-(3-(pyrrolidin-1-yl)propoxy)phenyl)amino)pyridin-2-yl)(methyl)amino)methyl)piperidin-1-yl)ethan-1-one]
8 | > 10 | > 10 | COc1ccc(Nc2nccc(OCC3CCN(C(C)=O)CC3)n2)cc1OCCCN1CCCC1 [Compound 14, 1-(4-(((2-((4-methoxy-3-(3-(pyrrolidin-1-yl)propoxy)phenyl)amino)pyrimidin-4-yl)oxy)methyl)piperidin-1-yl)ethan-1-one]
9 | < 0.1 | < 0.1 | COc1ccc(Nc2nccc(NCC3CCNCC3)n2)cc1OCC(O)CN1CCCC1 (stereo not drawn) [Compound 15, 1-(2-methoxy-5-((4-((piperidin-4-ylmethyl)amino)pyrimidin-2-yl)amino)phenoxy)-3-(pyrrolidin-1-yl)propan-2-ol]
10 | 0.1 to 1 | 0.1 to 1 | COc1ccc(Nc2nc(NCC3CCNCC3)cc(N3CCCC3)n2)cc1OCCCN1CCCC1 [Compound 103]
11 | > 10 | > 10 | COc1ccc(Nc2cc(CNC3CCNCC3)n(C)n2)cc1OCCCN1CCCC1 [Compound 126]
12 | > 10 | > 10 | COc1ccc(Nc2cc(CNC3CCOCC3)n(C)n2)cc1OCCCN1CCCC1 [Compound 127]
13 | > 10 | > 10 | COc1ccc(Nc2nccc(N3CCc4[nH]ncc4C3)n2)cc1OCCCN1CCCC1 [Compound 128]
14 | > 10 | > 10 | COc1ccc(Nc2nccc(-c3c(C)n[nH]c3C)n2)cc1OCCCN1CCCC1 [Compound 129]
15 | > 10 | > 10 | COc1ccc(Nc2nccc(-c3c(C)noc3C)n2)cc1OCCCN1CCCC1 [Compound 130]
16 | > 10 | > 10 | COc1ccc(Nc2nccc(-c3c[nH]nc3C)n2)cc1OCCCN1CCCC1 [Compound 131]
17 | > 10 | > 10 | COc1ccc(Nc2nccc(N3CCN(C)C(=O)C3)n2)cc1OCCCN1CCCC1 [Compound 132]
18 | 1 to 10 | > 10 | COc1ccc(Nc2nccc(N3CCCNC(=O)C3)n2)cc1OCCCN1CCCC1 [Compound 133]
